We go through 65 molecules from PubChem BioAssay AID2124 (Sanford-Burnham Center for Chemical Genomics, 2009).

This assay can be described thus: cell-permeable autofluorescent compounds in GFP channel, dose response, artefact control, imaging, high-content imaging (AID 2124).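 For all read-outs here: cells exposed to compound for 48 hours before fixing.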 To be noted: cells, GFP-channel autofluorescence, high-content imaging, at 10 µM; for z-score: stronger effect = higher value.

Results filed as inconclusive are left out. Active and inactive are the calls of the source. The rule behind the calls is not given here; tested in MIN6 cells.

On to `CCn1c2ccccc2c2nnc(SCC(=O)Nc3cc(C)on3)nc21`, for which the z-score is -0.33 (inactive) and the cell count came to 3100 cells.

Turning to `CCC(C)(C(=O)NC1CCCC1)N(C(=O)CNC(C)=O)c1ccccc1` (stereo not given), the z-score is -0.39 (inactive) and the cell count came out at 2960 cells.

Regarding `CC(C)SC1=NC(C)(C)C=C(/C=C/c2ccc(Cl)cc2Cl)N1`, the z-score was -0.36 (inactive) and the cell count is 2940 cells.

On to `Cn1c(=O)c(NC2CCCCC2)c2c3c(cccc31)C(=O)c1ccccc1-2`, for which the z-score is 3.32 and the cell count came out at 3050 cells.

`Cc1ccc(N=C2NC(=O)/C(=C/c3cn(C)c4ccccc34)S2)cc1C`: the z-score is -0.23 (inactive) and the cell count came out at 2580 cells.

Take `Cc1ccc(S(=O)(=O)N2CCCC2C(=O)N(C)Cc2cccs2)cc1` (stereo not given): the z-score was -0.39 (inactive) and the cell count came to 3120 cells.

`Nc1c(C(=O)C2CC2)sc2nc(-c3ccccc3)cc(C(F)(F)F)c12`: the z-score is 0.39 and the cell count amounted to 3090 cells.

On to `N#C/C(=C\c1ccc(N2CCCCC2)o1)C(=O)Nc1cccc(Br)c1`, for which the z-score is 3.15 and the cell count was found to be 2780 cells.

As to `O=C(Nc1ccc(N2CCCCC2)cc1)c1cccnc1`, the z-score was -0.39 (inactive) and the cell count was determined as 3060 cells.

`Cc1cc(C)nc(N2CCC(C(=O)Nc3ccc4c(c3)OCCO4)CC2)n1`: the z-score is -0.33 (inactive) and the cell count turned out to be 2790 cells.

For `O=C(Nc1ccon1)c1cccc(S(=O)(=O)N2CCCCC2)c1`, the z-score is -0.39 (inactive) and the cell count stood at 3190 cells.

Regarding `Cc1ccc(-c2ccc(/C=C(\C#N)C(=O)Nc3cc(C)nn3-c3ccccc3)o2)cc1`, the z-score is 1.66 and the cell count turned out to be 2460 cells.

In the case of `O=Cc1sc(Nc2ccccc2)nc1Cl`, the z-score was -0.31 (inactive) and the cell count stood at 3150 cells.

Consider `COC(=O)c1c(NC(=O)CC2Nc3cc(C)c(C)cc3NC2=O)sc(C)c1C` (stereo not given), for which the z-score was -0.38 (inactive) and the cell count turned out to be 3120 cells.

Consider `O=C(NC1(C(F)(F)F)NC(=O)N(c2ccc(F)c(Cl)c2)C1=O)c1ccncc1` (stereo not given), for which the z-score was -0.39 (inactive) and the cell count was determined as 3240 cells.

On to `COc1ccc(C2C=C(c3cccs3)Nc3nc(CCCO)nn32)cc1` (stereo not given), for which the z-score was -0.38 (inactive) and the cell count turned out to be 2650 cells.

Regarding `Cc1cc(/C=C2\SC(=S)NC2=O)c(C)n1C1CC1`, the z-score was -0.3 (inactive) and the cell count is 3040 cells.

In the case of `CN(C)c1ccc(/C=C2\N=C(c3ccc(Cl)c([N+](=O)[O-])c3)NC2=O)cc1`, the z-score is -0.33 (inactive) and the cell count worked out at 2940 cells.

As to `COCCNC(=O)c1onc(CSc2cccc(C)c2)c1C(=O)O`, the z-score is -0.39 (inactive) and the cell count was found to be 3170 cells.

For `CCN(CC)c1ccc2cc(C#N)c(=O)oc2c1`, the z-score is -0.32 (inactive) and the cell count came to 3390 cells.

Regarding `O=C1/C(=C/c2ccc(N3CCOCC3)o2)SC(=Nc2ccccc2)N1CCc1c[nH]c2ccccc12`, the z-score was 2.67 and the cell count was 192 cells.

In the case of `COc1ccccc1N1CCN(C/C(O)=C(\C#N)c2nc(-c3ccccc3)cs2)CC1`, the z-score was -0.38 (inactive) and the cell count was 3090 cells.

As for `CN1CCN(c2ccc(/C=C3\C(=O)NC(=S)N(c4cccc(Br)c4)C3=O)o2)CC1`, the z-score was -0.26 (inactive) and the cell count turned out to be 3260 cells.

In the case of `CC(C)NC(=O)N1CCN(c2ccncc2S(=O)(=O)N2CCOCC2)CC1`, the z-score is -0.39 (inactive) and the cell count came to 2900 cells.

With `COC(=O)c1ccc(COc2ccc3c(C)c(C)c(=O)oc3c2)o1`, the z-score is -0.33 (inactive) and the cell count came out at 3400 cells.

As for `CCc1ccccc1N1C(=O)/C(=C/c2ccc(N3CCN(C)CC3)o2)C(=O)NC1=S`, the z-score was -0.35 (inactive) and the cell count was 2580 cells.

As for `CCN(CC)c1ccc(C=C(c2nnnn2-c2ccccc2)c2nnnn2-c2ccccc2)cc1`, the z-score is -0.26 (inactive) and the cell count was 2370 cells.

Turning to `CC1CCCN(c2nc3c(c(=O)n(C)c(=O)n3C)n2CCSc2nc3ccccc3s2)C1` (stereo not given), the z-score is -0.38 (inactive) and the cell count is 3180 cells.

With `CCN1CCc2c(sc(NC(=O)Nc3ccc(Cl)c(Cl)c3)c2C(N)=O)C1`, the z-score was 8.59 and the cell count is 1910 cells.

In the case of `O=C(Cc1nc(-c2ccc([N+](=O)[O-])cc2)cs1)Nc1ccccc1`, the z-score was -0.39 (inactive) and the cell count was determined as 2770 cells.

Consider `S=c1[nH]nc(-c2ccccc2)n1CC1CCCO1` (stereo not given), for which the z-score was -0.33 (inactive) and the cell count amounted to 3250 cells.

For `Cc1noc(/C=C/c2ccc(-c3ccccc3Cl)o2)c1[N+](=O)[O-]`, the z-score was 0.5 and the cell count turned out to be 3160 cells.

`CCOc1ccc(NC2=NCC(=O)N2Cc2cccs2)cc1`: the z-score was -0.38 (inactive) and the cell count is 3020 cells.

In the case of `Cc1ccccc1-c1nnc(-c2ccc(Cl)cc2)o1`, the z-score was -0.26 (inactive) and the cell count is 2820 cells.

`CCCCCCN1C=CC(=C/C=C(\C#N)C(=O)OCC)C=C1`: the z-score is 0.43 and the cell count was 3270 cells.

In the case of `CCN1C=CC2=C(C#N)C(N)C(C#N)(C#N)C(c3ccccc3C(F)(F)F)C2C1` (stereo not given), the z-score was 0.77 and the cell count came to 2720 cells.

Regarding `CC1CC(=O)C2=C(C1)OC(N)=C(C#N)C2c1coc2ccccc2c1=O` (stereo not given), the z-score is -0.38 (inactive) and the cell count is 3180 cells.

Turning to `CC(C)C1S/C(=N/N=C/c2ccco2)NC1=O` (stereo not given), the z-score was -0.33 (inactive) and the cell count amounted to 3160 cells.

With `CCn1c(Cn2nnc(-c3ccccc3)n2)nnc1SCC(=O)Nc1ccc(C(C)=O)cc1`, the z-score was -0.33 (inactive) and the cell count turned out to be 3180 cells.

Consider `O=C(c1ccc2c(c1)OCO2)N1CCCC1`, for which the z-score was -0.33 (inactive) and the cell count came to 2960 cells.

Turning to `CN(C)S(=O)(=O)Oc1cccc(C(=O)Nc2ccc([N+](=O)[O-])cc2)c1`, the z-score is -0.33 (inactive) and the cell count was 2460 cells.

For `c1ccc(-c2csc(-n3cnnn3)n2)cc1`, the z-score is -0.38 (inactive) and the cell count turned out to be 3240 cells.

As to `O=C1/C(=C/c2ccc(N3CCCC3)cc2)NC(=S)N1C1CC1`, the z-score is 0.41 and the cell count was 2770 cells.

As for `Cc1ccc(-n2c(Cc3cccs3)nnc2SCC(=O)OC(C)C)cc1`, the z-score was -0.38 (inactive) and the cell count worked out at 2980 cells.

Regarding `Nc1nnc(-c2cc3c(ccc4ccccc43)oc2=O)s1`, the z-score is -0.23 (inactive) and the cell count was determined as 2510 cells.

As to `CCOc1cc(N(CC)CC)ccc1/C=C(/C#N)c1nc2ccccc2[nH]1`, the z-score was 1.08 and the cell count worked out at 1870 cells.

Take `O=C(NC1C=CS(=O)(=O)C1)c1sc2ccccc2c1Cl` (stereo not given): the z-score is -0.38 (inactive) and the cell count is 2120 cells.

`COc1ccc(CN(CC2CCC(C(=O)O)CC2)C(=S)Nc2cccc(C)c2)cc1` (stereo not given): the z-score was -0.38 (inactive) and the cell count was 3120 cells.

`COc1ccc(/C=C(\C#N)C(=O)OCC(=O)Nc2c(C)cccc2C(C)C)cc1`: the z-score is -0.39 (inactive) and the cell count came out at 2950 cells.

On to `CC1CCN(C(=O)CNS(=O)(=O)c2ccc(Br)s2)CC1`, for which the z-score is -0.33 (inactive) and the cell count amounted to 3290 cells.

With `Cc1cccc(Oc2nccc(C(F)(F)F)c2C(=O)Nc2ccc(F)cc2F)c1`, the z-score is -0.39 (inactive) and the cell count came to 3510 cells.

Turning to `Cc1cnc(NC(=O)CN2CCN(c3ccccn3)CC2)s1`, the z-score is -0.39 (inactive) and the cell count came out at 2360 cells.

Take `COc1cc2c3nnc(-c4ccc(F)cc4)c-3cn(Cc3ccc(F)cc3)c2cc1OC`: the z-score was 2.53 and the cell count was found to be 274 cells.

As for `Cc1ccc(-n2c(O)c(/C=N/NC(=O)C3COc4ccccc4O3)c3ccccc3c2=O)cc1` (stereo not given), the z-score is -0.25 (inactive) and the cell count was found to be 2870 cells.

Take `CCOc1ccc(OCC)c(-c2c(=O)n(OCc3ccc(Cl)cc3)c3ccccc3[n+]2[O-])c1`: the z-score was -0.38 (inactive) and the cell count was 2760 cells.

Take `CC(NC(=O)/C(C#N)=C1\N=C(NC(=O)c2cccs2)c2ccccc21)c1ccccc1` (stereo not given): the z-score was -0.38 (inactive) and the cell count amounted to 2810 cells.

As to `CC(=O)Nc1nc(-c2ccc(Br)s2)cs1`, the z-score was -0.39 (inactive) and the cell count stood at 3320 cells.

As to `CCOC(=O)c1nn(-c2ccc(Cl)cc2Cl)c(=N)c(C#N)c1C`, the z-score was 0.25 and the cell count amounted to 2790 cells.

As to `CCN(CC)CCN1C(=O)c2oc3ccccc3c(=O)c2C1c1ccccc1` (stereo not given), the z-score was -0.33 (inactive) and the cell count was 3330 cells.

Consider `CCN1/C(=C/c2cc[n+](CCCS(=O)(=O)[O-])c3ccccc23)Sc2ccccc21`, for which the z-score was -0.24 (inactive) and the cell count stood at 1390 cells.

For `COc1ccc(C2=NC(=O)/C(=C\c3cc(OC)c(OC)c(OC)c3)O2)cc1`, the z-score is -0.38 (inactive) and the cell count came to 2830 cells.

Take `O=c1c([N+](=O)[O-])cccn1Cc1ccc(F)cc1Cl`: the z-score was -0.38 (inactive) and the cell count was found to be 2960 cells.

For `COc1ccc(C2C(C(=O)c3ccccc3)=C(C)Nc3nc4ccccc4n32)c(OC)c1` (stereo not given), the z-score was -0.33 (inactive) and the cell count came out at 3000 cells.

As to `C=CCSc1nnc(NC(=O)c2cccc(S(=O)(=O)N3CCOCC3)c2)s1`, the z-score was -0.38 (inactive) and the cell count turned out to be 2670 cells.

As to `Cc1cc(C)c2nc(NNC(=O)c3cc(-c4cccs4)nc4ccccc34)sc2c1`, the z-score is -0.33 (inactive) and the cell count came to 2740 cells.
